Measurements: ChEMBL document CHEMBL1201862, “PubChem BioAssay data set” (2004)
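Grown in 96-well plates, cells were treated for 48 hours with each compound at five concentrations. Insufficient inhibition: endpoint recorded as highest concentration tested. At the GI50, growth is halved.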 Activity calls are given as the source filed them. Cut-off read from the data, not from the text of the source: active = GI50 up to about 1.1 µM and inactive = higher.

Tests used:
Assay in all cases: NCI tumour cell line growth inhibition, 48 h
KM-20L2 = tested on: KM-20L2
M19-MEL = tested on: M19-MEL
SNB-78 = tested on: SNB-78
DMS-273 = tested on: DMS-273
LXFL 529 = tested on: LXFL 529
RXF 631 = tested on: RXF 631
XF498 = tested on: XF498
DLD-1 = tested on: DLD-1
HOP-18 = tested on: HOP-18

Measured: GI50

O=P(O)(NCCCl)NCCCl [PALIFOSFAMIDE]
inactive: KM-20L2 > 10 µM | M19-MEL > 10 µM | SNB-78 > 10 µM | DMS-273 40 µM | LXFL 529 > 10 µM | RXF 631 > 100 µM | XF498 > 10 µM | DLD-1 > 10 µM | HOP-18 > 10 µM
